The values below come from patent US20070259948A1, “Compounds with antifungal properties and process thereof” (priority 2006, published 2007).

In brackets after ≈: the same amount, converted by molar mass.

Assay in all cases: Antifungal susceptibility testing (minimum inhibitory concentration), soyabean casein digest broth
Holding throughout (assay type): cell-based

The test system of one test is C. albicans. As to conditions: Candida albicans; end points after 48 hours, visually / spectrophotometer; NI till x = no inhibition up to x; read-out: Activity against organisms In μg/ml, C. albicans (minimum inhibitory concentration). As to the method:
(§1) In vitro evaluation of antifungal activity can be performed by determining the minimum inhibitory concentration. Anti-fungal susceptibility testing of these anti-fungal compounds was done by conventional method using soyabean casein digest broth. Known anti-fungal agents like Fluconazole and amphotericin-B were used as positive control. End points were determined after 48 hours visually and by using Spectrophotometer wherever necessary. Different dilutions were tried and the set of experiments.

A further test relates to A. niger. The following applies: Aspergillus niger; end points after 48 hours, visually / spectrophotometer; NI till x = no inhibition up to x; read-out: Activity against organisms In μg/ml, A. niger (minimum inhibitory concentration). The protocol:
as §1

A further test deals with F. proliferatum. As to conditions: Fusarium proliferatum; end points after 48 hours, visually / spectrophotometer; NI till x = no inhibition up to x; read-out: Activity against organisms In μg/ml, F. proliferatum (minimum inhibitory concentration). The protocol: as §1

Consider `COc1ccc(C2=CC(COC(=O)CCCl)OC2=O)cc1Br` (stereo not drawn) [1GE, 4-(3-bromo-4-methoxyphenyl)-5-oxo-2,5-dihydrofuran-2-ylmethyl 3-chloropropionate], for which the MIC in the test on C. albicans lay within 4 to 8 µg/mL (≈ 10.3 to 20.5 µM); in the test with A. niger, 4 to 8 µg/mL (≈ 10.3 to 20.5 µM); with F. proliferatum, 8 to 16 µg/mL (≈ 20.5 to 41.1 µM).
As for `O=C1OC(COC(=O)c2cccs2)C=C1c1cccc(Br)c1` (stereo not drawn) [1DC, 4-(3-bromophenyl)-5-oxo-2,5-dihydrofuran-2-ylmethyl thiophene-2-carboxylate], the MIC stood at 2 µg/mL (≈ 5.27 µM) with C. albicans, 8 µg/mL (≈ 21.1 µM) in the test on A. niger and 2 µg/mL (≈ 5.27 µM) in the test with F. proliferatum.
For `COc1ccc(C2=CC(COC(C)=O)OC2=O)cc1Br` (stereo not drawn) [1BE, 3-bromo-4-methoxyphenyl-5-acetoxymethyl-2H,5H-furan-2-one], the results for the MIC in the test on C. albicans, in the test on A. niger and with F. proliferatum were 2 to 4 µg/mL (≈ 5.86 to 11.7 µM), 4 to 8 µg/mL (≈ 11.7 to 23.4 µM) and 8 to 16 µg/mL (≈ 23.4 to 46.9 µM), respectively.
As to `O=C(CCCCl)OCC1C=C(c2cccc(Cl)c2)C(=O)O1` (stereo not drawn) [1HB, 4-(3-chlorophenyl)-5-oxo-2,5-dihydrofuran-2-ylmethyl 4-chlorobutyrate], the MIC in the test with C. albicans fell in the range of 1 to 2 µg/mL (≈ 3.04 to 6.08 µM); with A. niger, 2 to 4 µg/mL (≈ 6.08 to 12.2 µM); in the test with F. proliferatum, 1 to 2 µg/mL (≈ 3.04 to 6.08 µM).
Regarding `O=C1OC(COC(=O)c2ccccc2)C=C1c1ccc(Cl)c(Cl)c1` (stereo not drawn) [1AA, 3,4-dichlorophenyl-5-benzoyloxymethyl-2H,5H-furan-2-one], the figures for the MIC in the test with C. albicans, in the test with A. niger and in the test with F. proliferatum were 4 µg/mL (≈ 11 µM), 2 µg/mL (≈ 5.51 µM) and 1 µg/mL (≈ 2.75 µM), respectively.
For the molecule `O=C1OC(COC(=O)c2cccs2)C=C1c1cccc(Cl)c1` (stereo not drawn) [1DB, 4-(3-chlorophenyl)-5-oxo-2,5-dihydrofuran-2-ylmethyl thiophene-2-carboxylate], the figures for the MIC with C. albicans, in the test on A. niger and in the test on F. proliferatum were 2 µg/mL (≈ 5.97 µM), 4 µg/mL (≈ 11.9 µM) and 1 µg/mL (≈ 2.99 µM), respectively.
Take `O=C1OC(COC(=O)c2ccccc2)C=C1c1cccc(F)c1` (stereo not drawn) [1AD, 3-fluorophenyl-5-benzoyloxymethyl-2H,5H-furan-2-one]: the MIC in the test with C. albicans, in the test on A. niger and in the test on F. proliferatum was 1 to 2 µg/mL (≈ 3.2 to 6.4 µM) each time.
Turning to `C=CCC(=O)OCC1C=C(c2ccc(OC)c(Br)c2)C(=O)O1` (stereo not drawn) [1CE, 3-bromo-4-methoxyphenyl-5-allyloyloxymethyl-2H,5H-furan-2-one], the values for the MIC with C. albicans, in the test with A. niger and with F. proliferatum were 2 to 4 µg/mL (≈ 5.45 to 10.9 µM), over 8 µg/mL and over 8 µg/mL, respectively.
For `O=C(CCCl)OCC1C=C(c2ccc(Cl)c(Cl)c2)C(=O)O1` (stereo not drawn) [1GA, 4-(3,4-dichlorophenyl)-5-oxo-2,5-dihydrofuran-2-ylmethyl 3-chloropropionate], the MIC with C. albicans came out at 4 µg/mL (≈ 11.4 µM); with A. niger it was 2 µg/mL (≈ 5.72 µM); with F. proliferatum, 2 µg/mL (≈ 5.72 µM).
`O=C1OC(COC(=O)c2ccccc2)C=C1c1cccc(Cl)c1` (stereo not drawn) [1AB, 3-chlorophenyl-5-benzoyloxymethyl-2H,5H-furan-2-one]: the MIC stood at 2 µg/mL (≈ 6.08 µM) with C. albicans, 2 µg/mL (≈ 6.08 µM) with A. niger and 0.5 µg/mL (≈ 1.52 µM) in the test on F. proliferatum.
On to `O=C1OC(COC(=O)c2cccs2)C=C1c1ccc(Cl)c(Cl)c1` (stereo not drawn) [1DA, 4-(3,4-dichlorophenyl)-5-oxo-2,5-dihydrofuran-2-ylmethyl thiophene-2-carboxylate], for which the MIC turned out to be 2 µg/mL (≈ 5.42 µM) with C. albicans, 1 µg/mL (≈ 2.71 µM) in the test with A. niger and 2 µg/mL (≈ 5.42 µM) in the test with F. proliferatum.
For `COc1ccc(C2=CC(COC(=O)CCCCl)OC2=O)cc1Br` (stereo not drawn) [1HE, 4-(3-bromo-4-methoxyphenyl)-5-oxo-2,5-dihydrofuran-2-ylmethyl 4-chlorobutyrate], the MIC in the test on C. albicans, in the test with A. niger and in the test on F. proliferatum was over 4 µg/mL each time.
Regarding `O=C1OC(COC(=O)c2cccc(I)c2)C=C1c1cccc(Cl)c1` (stereo not drawn) [1JB, 4-(3-chlorophenyl)-5-oxo-2,5-dihydrofuran-2-ylmethyl 3-iodobenzoate], the MIC with C. albicans, in the test on A. niger and with F. proliferatum was over 2 µg/mL in each case.
Turning to `O=C1OC(COC(=O)c2ccsc2)C=C1c1cccc(Br)c1` (stereo not drawn) [1EC, 4-(3-bromophenyl)-5-oxo-2,5-dihydrofuran-2-ylmethyl thiophene-3-carboxylate], the MIC was 2 µg/mL (≈ 5.27 µM) in the test on C. albicans, 2 µg/mL (≈ 5.27 µM) in the test on A. niger and 1 µg/mL (≈ 2.64 µM) in the test on F. proliferatum.
For the molecule `COc1ccc(C2=CC(COC(=O)c3cccs3)OC2=O)cc1Br` (stereo not drawn) [1DE, 4-(3-bromo-4-methoxyphenyl)-5-oxo-2,5-dihydrofuran-2-ylmethyl thiophene-2-carboxylate], the MIC in the test on C. albicans, in the test on A. niger and in the test with F. proliferatum was over 2 µg/mL in each case.
Turning to `CC(=O)OCC1C=C(c2cccc(Br)c2)C(=O)O1` (stereo not drawn) [1BC, 3-bromophenyl-5-acetxymethyl-2H,5H-furan-2-one], the values for the MIC in the test on C. albicans, in the test on A. niger and with F. proliferatum were 2 µg/mL (≈ 6.43 µM), 4 µg/mL (≈ 12.9 µM) and 2 µg/mL (≈ 6.43 µM), respectively.
In the case of `O=C1OC(COC(=O)c2cc(Br)c(Br)s2)C=C1c1cccc(Br)c1` (stereo not drawn) [1FC, 4-(3-bromophenyl)-5-oxo-2,5-dihydrofuran-2-ylmethyl 4,5-dibromothiophene-2-carboxylate], the MIC in the test on C. albicans lay in the range of 1 to 2 µg/mL (≈ 1.86 to 3.72 µM); in the test on A. niger it was 2 to 4 µg/mL (≈ 3.72 to 7.45 µM); in the test on F. proliferatum, 1 to 2 µg/mL (≈ 1.86 to 3.72 µM).
As for `O=C(CCCl)OCC1C=C(c2cccc(Br)c2)C(=O)O1` (stereo not drawn) [1GC, 4-(3-bromophenyl)-5-oxo-2,5-dihydrofuran-2-ylmethyl 3-chloropropionate], the MIC with C. albicans was found to be 2 µg/mL (≈ 5.56 µM); with A. niger, 4 µg/mL (≈ 11.1 µM); in the test on F. proliferatum it was 2 µg/mL (≈ 5.56 µM).
Regarding `COc1ccc(C2=CC(COC(=O)c3cc(Br)c(Br)s3)OC2=O)cc1Br` (stereo not drawn) [FE, 4-(3-bromo-4-methoxyphenyl)-5-oxo-2,5-dihydrofuran-2-ylmethyl 4,5-dibromothiophene-2-carboxylate], the MIC was 4 to 8 µg/mL (≈ 7.05 to 14.1 µM) in the test on C. albicans, over 4 µg/mL with A. niger and over 4 µg/mL in the test with F. proliferatum.
With `O=C1OC(COC(=O)c2cc(Br)c(Br)s2)C=C1c1ccc(Cl)c(Cl)c1` (stereo not drawn) [1FA, 4-(3,4-dichlorophenyl)-5-oxo-2,5-dihydrofuran-2-ylmethyl 4,5-dibromothiophene-2-carboxylate], the MIC in the test on C. albicans, with A. niger and in the test with F. proliferatum was over 4 µg/mL in each case.
For the molecule `O=C1OC(COC(=O)c2ccsc2)C=C1c1ccc(Cl)c(Cl)c1` (stereo not drawn) [1EA, 4-(3,4-dichlorophenyl)-5-oxo-2,5-dihydrofuran-2-ylmethyl thiophene-3-carboxylate], the MIC in the test on C. albicans came to 2 µg/mL (≈ 5.42 µM); with A. niger it was 1 µg/mL (≈ 2.71 µM); with F. proliferatum, 2 µg/mL (≈ 5.42 µM).
For `O=C1OC(COC(=O)c2cccc(I)c2)C=C1c1cccc(Br)c1` (stereo not drawn) [1JC, 4-(3-bromophenyl)-5-oxo-2,5-dihydrofuran-2-ylmethyl 3-iodobenzoate], the MIC was 2 to 4 µg/mL (≈ 4.01 to 8.01 µM) in the test on C. albicans, over 4 µg/mL in the test with A. niger and over 4 µg/mL with F. proliferatum.
`O=C1OC(COC(=O)c2ccc[nH]2)C=C1c1cccc(Br)c1` (stereo not drawn) [1KC, 4-(3-bromophenyl)-5-oxo-2,5-dihydrofuran-2-ylmethyl pyrrole-2-carboxylate]: the MIC fell in the range of 1 to 2 µg/mL (≈ 2.76 to 5.52 µM) in the test with C. albicans, 2 to 4 µg/mL (≈ 5.52 to 11 µM) in the test on A. niger and 1 to 2 µg/mL (≈ 2.76 to 5.52 µM) in the test on F. proliferatum.
For the molecule `COc1ccc(C2=CC(COC(=O)c3ccsc3)OC2=O)cc1Br` (stereo not drawn) [1EE, 4-(3-bromo-4-methoxyphenyl)-5-oxo-2,5-dihydrofuran-2-ylmethyl thiophene-3-carboxylate], the MIC in the test on C. albicans, with A. niger and in the test on F. proliferatum was over 2 µg/mL throughout.
Turning to `COc1ccc(C2=CC(COC(=O)CCCCCl)OC2=O)cc1Br` (stereo not drawn) [1IE, 4-(3-bromo-4-methoxyphenyl)-5-oxo-2,5-dihydrofuran-2-ylmethyl 5-chlorovalerate], the MIC with C. albicans, in the test on A. niger and with F. proliferatum was over 8 µg/mL throughout.
Take `C=CCC(=O)OCC1C=C(c2cccc(Br)c2)C(=O)O1` (stereo not drawn) [1CC, 3-bromophenyl-5-allyloyloxymethyl-2H,5H-furan-2-one]: the MIC with C. albicans was found to be 4 µg/mL (≈ 11.9 µM); in the test on A. niger, 8 µg/mL (≈ 23.7 µM); in the test with F. proliferatum it was 2 µg/mL (≈ 5.93 µM).
Turning to `O=C1OC(COC(=O)c2ccsc2)C=C1c1cccc(Cl)c1` (stereo not drawn) [1EB, 4-(3-chlorophenyl)-5-oxo-2,5-dihydrofuran-2-ylmethyl thiophene-3-carboxylate], the MIC with C. albicans amounted to 4 µg/mL (≈ 11.9 µM); in the test with A. niger, 4 µg/mL (≈ 11.9 µM); in the test on F. proliferatum, 2 µg/mL (≈ 5.97 µM).
As to `O=C(CCCl)OCC1C=C(c2cccc(Cl)c2)C(=O)O1` (stereo not drawn) [1GB, 4-(3-chlorophenyl)-5-oxo-2,5-dihydrofuran-2-ylmethyl 3-chloropropionate], the MIC with C. albicans amounted to 2 µg/mL (≈ 6.35 µM); in the test with A. niger it was 2 µg/mL (≈ 6.35 µM); in the test with F. proliferatum, 4 µg/mL (≈ 12.7 µM).
With `O=C(CCCCl)OCC1C=C(c2cccc(Br)c2)C(=O)O1` (stereo not drawn) [1HC, 4-(3-bromophenyl)-5-oxo-2,5-dihydrofuran-2-ylmethyl 4-chlorobutyrate], the MIC lay within 1 to 2 µg/mL (≈ 2.68 to 5.35 µM) in the test with C. albicans, 4 to 8 µg/mL (≈ 10.7 to 21.4 µM) in the test with A. niger and 1 to 2 µg/mL (≈ 2.68 to 5.35 µM) in the test with F. proliferatum.
For the molecule `C=CCC(=O)OCC1C=C(c2cccc(Cl)c2)C(=O)O1` (stereo not drawn) [1CB, 3-chlorophenyl-5-allyloyloxymethyl-2H,5H-furan-2-one], the results for the MIC with C. albicans, in the test on A. niger and in the test with F. proliferatum were 4 µg/mL (≈ 13.7 µM), 8 µg/mL (≈ 27.3 µM) and 2 µg/mL (≈ 6.83 µM), respectively.
Turning to `CC(=O)OCC1C=C(c2cccc(F)c2)C(=O)O1` (stereo not drawn) [1BD, 3-fluorophenyl-5-acetxymethyl-2H,5H-furan-2-one], the MIC in the test with C. albicans, in the test on A. niger and with F. proliferatum was 1 to 2 µg/mL (≈ 4 to 7.99 µM) in each case.
With `C=CCC(=O)OCC1C=C(c2ccc(Cl)c(Cl)c2)C(=O)O1` (stereo not drawn) [1CA, 3,4-dichlorophenyl-5-allyloyloxymethyl-2H,5H-furan-2-one], the MIC was found to be 2 µg/mL (≈ 6.11 µM) with C. albicans, 1 µg/mL (≈ 3.06 µM) with A. niger and 1 µg/mL (≈ 3.06 µM) in the test with F. proliferatum.
For the molecule `O=C(CCCCl)OCC1C=C(c2ccc(Cl)c(Cl)c2)C(=O)O1` (stereo not drawn) [1HA, 4-(3,4-dichlorophenyl)-5-oxo-2,5-dihydrofuran-2-ylmethyl 4-chlorobutyrate], the MIC in the test with C. albicans, in the test with A. niger and in the test on F. proliferatum was 1 to 2 µg/mL (≈ 2.75 to 5.5 µM) in each case.
